The values that follow come from patent US11566260B2, “Potentiating agents for protecting plants from fungal infections” (UNIVERSITE D'ANGERS, priority 2012, dated 2023).

In general, inhibition refers to the drop in the measured response relative to a control, in per cent.

Assay [1] concerns S. cerevisiae strain overexpressing Alternaria brassicicola Pkc1. As to the kind of experiment: Test C: growth of S. cerevisiae strain overexpressing Alternaria brassicicola Pkc1 (pYES-PKC). Format: cell-based, Saccharomyces cerevisiae. The settings on record: pYES2-PKC; for Area under the curve: inducing medium, OD 600 nm. The procedure:
(§1) Test C is based on the essential role of Pkc1 in fungal cells: if its essential function is inhibited, the growth of the fungal cells will be affected. Therefore, in Test C, two different strains of S. cerevisiae are cultured in the presence of the tested compound: the first one is a wild-type strain, whereas the second overexpresses the fungal Pkc1 gene. If the tested compound is an inhibitor of the fungal Pkc1 protein, the growth of the wild-type strain will be inhibited, whereas the induction of the overexpression of the heterologous fungal Pkc1 gene will restore, at least partially, the growth rate. Test C is carried out in Example 3.
Construction of a S. cerevisiae strain overexpressing Alternaria brassicicola Pkc1 The cDNA encoding the Pkc1 gene of Alternaria brassicicola (http://genome.jgi-psf.org/Altbr1/Altbr1.home.html; sequence ref: AB07449.1) was amplified by PCR and cloned into a pYES2-CT vector (Invitrogen, Paisley, UK). The resulting vector (pYES-PKC) was inserted in a BY4743 strain of Saccharomyces cerevisiae.
(§2) Growth of this strain was monitored in an inducing medium (GS uracil-free medium supplemented with galactose) in presence of increasing concentrations of chelerythrin (0, 25, 50 or 75 μM), and was compared with the growth of a control strain (BY4743 strain transformed with the empty pYES2-CT vector). Growth was measured by spectrometry (Optic density: 600 nm). Inhibition of growth was assessed by comparison of the area under the curves.

Assay [2] concerns BY4743 strain transformed with the empty pYES2-CT vector. As to the kind of experiment: Test C: growth of S. cerevisiae control strain (empty pYES2-CT vector). Format: cell-based, Saccharomyces cerevisiae. The settings on record: for Area under the curve: OD 600 nm. The procedure:
as §1, §2

For assay [3], the system named is Alternaria brassicicola. As to the kind of experiment: Test A: growth of Alternaria brassicicola conidia followed by nephelometry, to find the non-fungicidal amount. Format: cell-based. The procedure: (§3) Suspensions of fungal conidia (starting material being for example 10^5 conidia/mL) are cultured in liquid medium, such as, for example, 300 μL of PBD medium, on microplate wells at 25° C. with shaking at 175 rpm for 5 minutes every 10 minutes. Increasing concentrations of the tested product are added on wells, and fungal growth is measured, during at least 5 hours, preferably at least 10, 20, 30 hours. Methods for measuring fungal growth are well known from the skilled artisan. Examples of such methods include, but are not limited to, photometry, such as, for example, spectrophotometric methods; or nephelometry, such as, for example, laser nephelometry as described in Joubert et al (Biotechniques, 2010, 48:399-404). Growth inhibition is measured by comparing the Area Under Curves (AUC) of treated samples and of untreated controls. Test A is carried out in Example 1.
Alternaria brassicicola strains were cultivated at 24° C. on potato dextrose (PD) medium (Cat. No. 213200; Becton Dickinson, USA).
For inoculum preparation, conidia were collected from 8-days-old solid cultures by adding PD broth followed by gentle scraping of the agar plates. They were counted in a Thoma's chamber and the conidial suspensions were diluted to the concentration of 10^5 conidia/mL.
Growth was automatically recorded for at least 30 hours at 25° C. using a nephelometric reader (NEPHELOstar Galaxy, BMG Labtech, Germany) equipped with a 635-nm laser as radiation source. During incubation, the 96-well plates were subjected to shaking at 175 rpm for 5 minutes every 10 minutes. Measurements were done every hour with a gain value of 90 and a percentage of the maximum value of 20%. Each well was measured for 0.1 second with a laser beam of 2.5 mm.
Chelerythrin (25 μM or 50 μM, test wells) or 10 μL of DMSO (chelerythrin solvent, control wells) were added on wells, and growth curves were drawn (FIG. 1).
Camalexin (10, 20, 40 or 60 μM, test wells) or 10 μL of DMSO (chelerythrin solvent, control wells) were added on wells, and growth curves were drawn (FIG. 2).

The subject of assay [4] is Alternaria brassicicola. Briefly: Test B: potentiating effect with a plant defense molecule on growth of Alternaria brassicicola. Format: cell-based. The procedure:
as §3, with “Test B: • 1) Determining a non-fungicidal amount of said agent, preferably according to Test A; • 2) Determining a non-fungicidal amount of a plant defense molecule, preferably according to Test A; • 3) Measuring growth of fungal conidia in a medium comprising a combination of a non-fungicidal amount of the agent, as determined in step 1, and a non-fungicidal amount of the plant defense molecule, as determined in step 2. In one embodiment, the growth is measured as follows: Suspensions” for “Suspensions”, “material:” for “material being for example”, “Non-fungicidal” for “Increasing”, “agent and of the tested plant defense molecule” for “product”, “measured” for “measured,”, “controls.” for “controls. Test A is carried out in Example 1.”
The potentiating effect of chelerythrin is measured in a suspension of conidia treated with a plant defense molecule, camalexin, which is present at a non-fungicidal amount as determined hereinabove. Said non-fungicidal amount is consistent with the amount of camalexin produced by an infected plant organ.
Alternaria brassicicola growth was measured as described hereinabove.
A non-fungicidal amount of chelerythrin (as determined in Example 1a) and/or a non-fungicidal amount of camalexin (as determined in Example 1b) or 10 μL of DMSO are added per well, and growth curves were drawn (FIG. 3).
In the Table 5 below are shown compounds (column 1) having a potentiating effect of a plant defense molecule (column 2) for the inhibition of a pathogenic fungus (column 3). The type of the potentiating agent in this particular situation is given in column 4 (homologous or heterologous). Triads were identified according to Test B.

Each structure is given as a SMILES string.

On to `COc1ccc2c(c[n+](C)c3c4cc5c(cc4ccc23)OCO5)c1OC` [Chelerythrin], for which the inhibition at 25 µM in assay [1] (25 μM chelerythrin) came to 15%; in assay [2] (Saccharomyces cerevisiae, 25 μM chelerythrin), 43%. The “Area under the curve” value in assay [1] (25 μM chelerythrin) worked out at 10.7; in assay [1] (50 μM chelerythrin) it was 9.4; in assay [1] (75 μM chelerythrin) it was 8.8; in assay [2] (25 μM chelerythrin) it was 8.6; in assay [2] (50 μM chelerythrin), 3.2; in assay [2] (75 μM chelerythrin) it was 2.5. Further, the inhibition at 50 µM in assay [1] (50 μM chelerythrin) is 25%; in assay [2] (Saccharomyces cerevisiae, 50 μM chelerythrin), 79%. Besides, the inhibition at 75 µM in assay [1] (75 μM chelerythrin) turned out to be 30%; in assay [2] (Saccharomyces cerevisiae, 75 μM chelerythrin), 84%. For the same molecule, the “Alternaria brassicicola growth inhibition” value in the assay on Alternaria brassicicola [3] (25 μM chelerythrin, nephelometry, at least 30 hours, 25° C., vs DMSO control) was “does not inhibit”. Further, the non-fungicidal amount in the assay with Alternaria brassicicola [3] (Alternaria brassicicola, in vitro) is 25 µM. Further, in the assay on Alternaria brassicicola [4] (25 μM chelerythrin combined with 10 μM camalexin, both non-fungicidal amounts), the “inhibition of Alternaria brassicicola growth by the combination” value is recorded as “drastic inhibition”. In addition, the “Type of potentiating agent (compound having a potentiating effect of the plant defense molecule)” value is “Homologous” in the assay with Alternaria brassicicola [4] (plant defense molecule Brassinin, Alternaria brassicicola) and “Homologous” with Alternaria brassicicola [4] (plant defense molecule Camalexin, Alternaria brassicicola). Besides, the potentiating amount with Alternaria brassicicola [4] (with non-fungicidal amount of camalexin, Alternaria brassicicola) stood at 25 µM.
